Measured values published in PMC4648050, “Discovery of Inhibitors of Trypanosoma brucei by Phenotypic Screening of a Focused Protein Kinase Library” (Chemmedchem, 2015).
pEC50: −log10 of the molar value. Read-outs that look alike come from different tables or passages of the source.

Key:
T. b. brucei = test: Trypanosome proliferation assay; type: cell-based, Trypanosoma brucei brucei; settings: geometric mean of two or more determinations, standard cell viability (resazurin) assay, read-out: EC50 T. b. brucei
Method: (§1) Trypanosome and MRC5 proliferation assay: Measurement of inhibition of the proliferation of MRC5 cells (human lung fibroblasts) and T. brucei bloodstream-stage cells was performed using a modification of a cell viability assay previously described.[35, 36] Compounds ([…] to 0.5 nM) were incubated with 2×10^3 cells per well in 0.2 mL of the appropriate culture medium (MEM with 10 % foetal bovine serum for MRC5 cells) in clear 96-well plates. Plates were incubated at 37 °C in the presence of 5 % CO2 for 69 h. Resazurin was then added to a final concentration of 50 μM, and plates were incubated as above for a further 4 h before being read on a BioTek Flx800 fluorescence plate reader.

[1] = tested on: MRC5 cells (human lung fibroblasts); test: MRC5 proliferation assay; type: cell-based; settings: geometric mean of two or more determinations
Method: as §1

ERK1 = ERK1 (Homo sapiens, UniProt P27361); test: Kinase panel: ERK1; type: biochemical, human/mammalian; settings: compound at 10 μM, read-out: % of activity respect of the control
Method: (§2) The DDU kinase-focused compound set contains lead-like scaffolds that are designed to target protein kinases; they have kinase hinge binding motifs. Four of the 1H-imidazopyrazinones were screened against a human/mammalian kinase panel at the University of Dundee (http://www.kinase-screen.mrc.ac.uk) at a concentration of 10 μM. At the time of testing the panel contained 79 mammalian kinases selected to provide a broad coverage of the mammalian kinome (∼500 kinases in the human genome).[3] None of the compounds were active against any of the kinases at 10 μM.

JNK1 = JNK1 (Homo sapiens, UniProt P45983); test: Kinase panel: JNK1; type: biochemical, human/mammalian; settings: compound at 10 μM, read-out: % of activity respect of the control
Method: as §2

p38g MAPK = molecular target: T1, p38g MAPK (Homo sapiens, UniProt P53778); test: Kinase panel: p38g MAPK; type: biochemical, human/mammalian; settings: compound at 10 μM, read-out: % of activity respect of the control
T1 sequence (P53778 1-367): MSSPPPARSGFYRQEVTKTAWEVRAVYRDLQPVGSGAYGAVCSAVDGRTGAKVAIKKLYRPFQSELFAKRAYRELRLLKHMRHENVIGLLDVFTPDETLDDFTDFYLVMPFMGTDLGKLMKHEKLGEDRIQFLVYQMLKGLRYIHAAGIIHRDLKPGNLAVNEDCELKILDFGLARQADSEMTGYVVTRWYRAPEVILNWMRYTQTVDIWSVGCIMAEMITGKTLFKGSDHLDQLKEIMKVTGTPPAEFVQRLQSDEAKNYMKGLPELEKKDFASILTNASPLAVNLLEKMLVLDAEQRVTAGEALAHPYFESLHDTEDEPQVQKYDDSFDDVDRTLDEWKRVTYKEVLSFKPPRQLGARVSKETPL
Method: as §2

p38s MAPK = molecular target: T2, p38s MAPK (Homo sapiens, UniProt O15264); test: Kinase panel: p38s MAPK; type: biochemical, human/mammalian; settings: compound at 10 μM, read-out: % of activity respect of the control
T2 sequence (O15264 1-365): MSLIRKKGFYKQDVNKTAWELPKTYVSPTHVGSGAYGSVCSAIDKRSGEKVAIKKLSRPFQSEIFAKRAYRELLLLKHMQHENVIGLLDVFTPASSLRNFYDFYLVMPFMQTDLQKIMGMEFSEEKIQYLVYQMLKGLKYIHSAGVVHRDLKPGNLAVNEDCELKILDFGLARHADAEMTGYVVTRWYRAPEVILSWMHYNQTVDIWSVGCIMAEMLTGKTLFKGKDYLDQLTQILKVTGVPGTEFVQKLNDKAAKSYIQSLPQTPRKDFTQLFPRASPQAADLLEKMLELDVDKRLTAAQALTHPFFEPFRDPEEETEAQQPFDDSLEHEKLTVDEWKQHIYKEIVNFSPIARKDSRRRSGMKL
Method: as §2

RSK1 = RSK1 (Homo sapiens, UniProt Q15418); test: Kinase panel: RSK1; type: biochemical, human/mammalian; settings: compound at 10 μM, read-out: % of activity respect of the control
Method: as §2

RSK2 = RSK2 (Homo sapiens, UniProt P51812); test: Kinase panel: RSK2; type: biochemical, human/mammalian; settings: compound at 10 μM, read-out: % of activity respect of the control
Method: as §2

SGK1 = molecular target: T3, SGK1 (Homo sapiens, UniProt O00141); test: Kinase panel: SGK1; type: biochemical, human/mammalian; settings: compound at 10 μM, read-out: % of activity respect of the control
T3 sequence (O00141 1-431): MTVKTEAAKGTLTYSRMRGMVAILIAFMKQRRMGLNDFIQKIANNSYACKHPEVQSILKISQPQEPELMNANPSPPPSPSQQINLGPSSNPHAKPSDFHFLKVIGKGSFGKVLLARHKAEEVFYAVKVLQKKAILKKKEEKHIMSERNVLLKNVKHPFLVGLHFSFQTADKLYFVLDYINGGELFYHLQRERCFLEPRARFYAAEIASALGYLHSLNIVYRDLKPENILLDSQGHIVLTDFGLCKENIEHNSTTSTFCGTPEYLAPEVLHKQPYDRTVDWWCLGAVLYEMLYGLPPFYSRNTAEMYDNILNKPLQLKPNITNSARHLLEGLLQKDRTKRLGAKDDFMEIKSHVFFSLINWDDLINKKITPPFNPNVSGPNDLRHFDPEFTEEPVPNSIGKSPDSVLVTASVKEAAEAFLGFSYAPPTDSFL
Method: as §2

MNK2 = MNK2 (Homo sapiens, UniProt Q9HBH9); test: Kinase panel: MNK2; type: biochemical, human/mammalian; settings: compound at 10 μM, read-out: % of activity respect of the control
Method: as §2

CDK2-Cyclin A = CDK2-Cyclin A (Homo sapiens, UniProt P24941); test: Kinase panel: CDK2-Cyclin A; type: biochemical, human/mammalian; settings: compound at 10 μM, read-out: % of activity respect of the control
Method: as §2

CK1 = CK1 (Homo sapiens, UniProt P48730); test: Kinase panel: CK1; type: biochemical, human/mammalian; settings: compound at 10 μM, read-out: % of activity respect of the control
Method: as §2

DYRK1A = DYRK1A (Homo sapiens, UniProt Q13627); test: Kinase panel: DYRK1A; type: biochemical, human/mammalian; settings: compound at 10 μM, read-out: % of activity respect of the control
Method: as §2

SRPK1 = SRPK1 (Homo sapiens, UniProt Q96SB4); test: Kinase panel: SRPK1; type: biochemical, human/mammalian; settings: compound at 10 μM, read-out: % of activity respect of the control
Method: as §2

SRPK1, sequence (Q96SB4 whole entry): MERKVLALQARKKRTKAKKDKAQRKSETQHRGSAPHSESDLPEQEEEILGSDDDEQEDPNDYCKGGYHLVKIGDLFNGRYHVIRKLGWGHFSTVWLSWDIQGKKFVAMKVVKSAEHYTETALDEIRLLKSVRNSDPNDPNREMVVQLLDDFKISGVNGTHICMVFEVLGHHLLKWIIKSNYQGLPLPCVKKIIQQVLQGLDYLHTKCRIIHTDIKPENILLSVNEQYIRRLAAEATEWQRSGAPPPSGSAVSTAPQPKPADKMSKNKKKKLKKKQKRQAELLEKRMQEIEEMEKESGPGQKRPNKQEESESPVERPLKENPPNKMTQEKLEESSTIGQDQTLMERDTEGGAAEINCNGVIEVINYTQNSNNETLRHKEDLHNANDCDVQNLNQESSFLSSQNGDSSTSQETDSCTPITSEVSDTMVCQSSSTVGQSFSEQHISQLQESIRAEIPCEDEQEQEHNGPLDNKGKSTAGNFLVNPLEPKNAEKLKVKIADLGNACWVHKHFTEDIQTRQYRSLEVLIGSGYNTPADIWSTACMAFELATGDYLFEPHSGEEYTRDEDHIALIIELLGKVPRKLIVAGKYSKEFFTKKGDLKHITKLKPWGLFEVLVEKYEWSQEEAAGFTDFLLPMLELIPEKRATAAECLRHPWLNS
ERK1, sequence (P27361 whole entry): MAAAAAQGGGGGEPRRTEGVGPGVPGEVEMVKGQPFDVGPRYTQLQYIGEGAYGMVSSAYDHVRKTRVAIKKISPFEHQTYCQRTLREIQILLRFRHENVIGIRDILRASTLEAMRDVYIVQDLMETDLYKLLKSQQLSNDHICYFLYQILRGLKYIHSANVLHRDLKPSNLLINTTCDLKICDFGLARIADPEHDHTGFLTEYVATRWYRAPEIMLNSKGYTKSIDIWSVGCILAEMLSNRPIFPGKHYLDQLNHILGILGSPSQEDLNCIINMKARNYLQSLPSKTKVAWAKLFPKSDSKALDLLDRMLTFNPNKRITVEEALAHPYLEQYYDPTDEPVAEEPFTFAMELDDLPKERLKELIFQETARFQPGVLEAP
RSK2, sequence (P51812 whole entry): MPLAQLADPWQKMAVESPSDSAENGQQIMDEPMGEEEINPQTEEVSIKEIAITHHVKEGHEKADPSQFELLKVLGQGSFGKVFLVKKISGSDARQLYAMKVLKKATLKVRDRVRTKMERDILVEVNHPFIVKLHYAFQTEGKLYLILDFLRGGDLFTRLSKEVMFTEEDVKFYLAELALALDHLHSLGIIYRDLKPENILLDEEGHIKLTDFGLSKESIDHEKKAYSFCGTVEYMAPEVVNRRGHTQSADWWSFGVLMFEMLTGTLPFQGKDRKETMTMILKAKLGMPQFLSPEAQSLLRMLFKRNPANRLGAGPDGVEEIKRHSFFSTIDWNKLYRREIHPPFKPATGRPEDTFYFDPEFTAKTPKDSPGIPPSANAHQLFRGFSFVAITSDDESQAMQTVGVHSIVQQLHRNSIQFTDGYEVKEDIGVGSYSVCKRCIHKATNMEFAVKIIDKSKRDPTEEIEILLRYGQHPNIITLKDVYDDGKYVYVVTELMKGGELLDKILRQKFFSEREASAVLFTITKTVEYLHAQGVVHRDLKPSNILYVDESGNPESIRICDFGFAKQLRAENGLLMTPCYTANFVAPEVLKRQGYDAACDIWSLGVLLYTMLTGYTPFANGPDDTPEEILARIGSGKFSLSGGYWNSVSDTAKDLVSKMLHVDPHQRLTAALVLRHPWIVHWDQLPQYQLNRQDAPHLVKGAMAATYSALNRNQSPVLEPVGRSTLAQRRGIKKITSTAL
RSK1, sequence (Q15418 whole entry): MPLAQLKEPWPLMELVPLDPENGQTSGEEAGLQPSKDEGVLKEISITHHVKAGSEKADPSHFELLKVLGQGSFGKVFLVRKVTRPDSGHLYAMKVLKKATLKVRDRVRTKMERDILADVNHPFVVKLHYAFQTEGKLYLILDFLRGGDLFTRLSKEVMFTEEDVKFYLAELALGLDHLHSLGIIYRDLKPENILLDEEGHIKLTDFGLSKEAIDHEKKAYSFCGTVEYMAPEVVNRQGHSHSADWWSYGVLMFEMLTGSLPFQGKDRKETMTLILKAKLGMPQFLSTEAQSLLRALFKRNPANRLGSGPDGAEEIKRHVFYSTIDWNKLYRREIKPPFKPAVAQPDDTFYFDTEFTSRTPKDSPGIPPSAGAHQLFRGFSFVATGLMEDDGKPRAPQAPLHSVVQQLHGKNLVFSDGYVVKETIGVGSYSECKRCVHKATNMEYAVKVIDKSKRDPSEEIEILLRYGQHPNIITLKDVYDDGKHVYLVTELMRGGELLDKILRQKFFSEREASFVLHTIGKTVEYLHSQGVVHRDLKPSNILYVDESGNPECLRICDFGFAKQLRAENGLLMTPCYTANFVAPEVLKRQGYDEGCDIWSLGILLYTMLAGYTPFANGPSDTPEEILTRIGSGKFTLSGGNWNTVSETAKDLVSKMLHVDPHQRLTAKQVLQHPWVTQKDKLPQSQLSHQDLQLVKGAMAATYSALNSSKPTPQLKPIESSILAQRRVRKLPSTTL
JNK1, sequence (P45983 whole entry): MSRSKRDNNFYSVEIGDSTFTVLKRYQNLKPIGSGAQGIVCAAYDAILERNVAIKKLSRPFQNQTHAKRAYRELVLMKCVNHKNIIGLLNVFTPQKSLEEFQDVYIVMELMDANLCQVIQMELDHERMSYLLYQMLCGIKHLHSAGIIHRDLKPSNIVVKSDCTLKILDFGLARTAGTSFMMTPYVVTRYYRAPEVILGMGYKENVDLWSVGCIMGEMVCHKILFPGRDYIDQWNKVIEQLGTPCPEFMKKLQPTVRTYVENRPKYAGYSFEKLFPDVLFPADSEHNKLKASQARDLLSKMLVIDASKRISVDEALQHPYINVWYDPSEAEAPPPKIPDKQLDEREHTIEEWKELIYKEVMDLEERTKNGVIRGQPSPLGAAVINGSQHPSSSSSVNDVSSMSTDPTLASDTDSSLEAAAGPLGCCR
MNK2, sequence (Q9HBH9 whole entry): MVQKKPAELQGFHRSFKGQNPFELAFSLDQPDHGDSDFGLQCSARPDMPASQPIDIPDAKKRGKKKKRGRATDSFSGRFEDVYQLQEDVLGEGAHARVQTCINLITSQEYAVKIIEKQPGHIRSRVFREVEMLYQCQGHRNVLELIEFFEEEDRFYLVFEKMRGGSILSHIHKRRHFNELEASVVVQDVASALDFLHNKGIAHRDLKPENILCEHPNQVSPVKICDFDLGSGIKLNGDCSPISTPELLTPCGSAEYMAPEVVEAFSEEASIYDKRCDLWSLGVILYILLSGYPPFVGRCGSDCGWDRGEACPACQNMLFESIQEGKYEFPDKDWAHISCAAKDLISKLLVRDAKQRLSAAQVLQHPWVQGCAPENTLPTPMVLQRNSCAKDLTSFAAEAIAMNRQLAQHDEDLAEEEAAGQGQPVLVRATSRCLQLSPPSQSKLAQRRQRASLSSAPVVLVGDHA
CK1, sequence (P48730 whole entry): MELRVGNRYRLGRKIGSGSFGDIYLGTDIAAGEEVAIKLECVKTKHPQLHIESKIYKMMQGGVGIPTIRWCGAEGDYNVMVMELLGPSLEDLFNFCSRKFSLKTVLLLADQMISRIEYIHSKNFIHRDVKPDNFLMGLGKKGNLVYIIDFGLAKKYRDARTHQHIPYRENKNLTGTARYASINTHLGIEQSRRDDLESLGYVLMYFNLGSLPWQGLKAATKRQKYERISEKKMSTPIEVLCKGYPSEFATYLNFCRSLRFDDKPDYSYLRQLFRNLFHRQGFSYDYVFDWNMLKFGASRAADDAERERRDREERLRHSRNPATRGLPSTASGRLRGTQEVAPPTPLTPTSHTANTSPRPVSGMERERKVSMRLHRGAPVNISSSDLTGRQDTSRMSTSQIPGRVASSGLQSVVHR

SMILES	pEC50 (T. b. brucei; Trypanosoma brucei)	pEC50 [1]	remaining activity at 10 µM (ERK1) [%]	remaining activity at 10 µM (JNK1) [%]	remaining activity at 10 µM (p38g MAPK) [%]	remaining activity at 10 µM (p38s MAPK) [%]	remaining activity at 10 µM (RSK1) [%]	remaining activity at 10 µM (RSK2) [%]	remaining activity at 10 µM (SGK1) [%]	remaining activity at 10 µM (MNK2) [%]	remaining activity at 10 µM (CDK2-Cyclin A) [%]	remaining activity at 10 µM (CK1) [%]	remaining activity at 10 µM (DYRK1A) [%]	remaining activity at 10 µM (SRPK1) [%]	pEC50 (T. b. brucei)
CC(c1ccccc1)n1c(=O)[nH]c2ncc(-c3ccc(F)cc3)nc21 (centres unmarked) [Compound 1]	7.10	< 4.30	153	95	98	108	96	110	104	106	89	75	79	80	–
O=c1[nH]c2ncc(-c3ccc(F)cc3)nc2n1CC1CC1 [Compound 10]	6.52	< 4.30	112	100	94	91	85	113	110	99	82	75	113	89	–
O=c1[nH]c2ncc(-c3ccc(F)cc3)nc2n1C1CCCCC1 [Compound 12, 1-Cyclohexyl-6-(4-fluorophenyl)-1H-imidazo[4,5-b]pyrazin-2(3H)-one]	7.52	< 4.30	115	95	98	76	89	104	111	103	84	98	93	88	–
C[C@H](c1ccccc1)n1c(=O)[nH]c2ncc(-c3ccccc3)nc21 [Compound 14, (R)-6-Phenyl-1-(1-phenylethyl)-1H-imidazo[4,5-b]pyrazin-2(3H)-one]	7.00	4.59	105	97	91	77	89	101	98	97	84	71	85	75	–
O=c1[nH]c2ncc(-c3ccccc3CO)nc2n1C1CCCCC1 [Compound 28]	7.30	< 4.30	–	–	–	–	–	–	–	–	–	–	–	–	7.34
